Source: article PMC2921341, “Interaction of Serum- and Glucocorticoid Regulated Kinase 1 (SGK1) with the WW-Domains of Nedd4-2 Is Required for Epithelial Sodium Channel Regulation” (PLoS ONE, 2010)

Test system: SGK
Assay: GST pulldown of SGK from COS7 lysate with WW-domain GST fusion proteins
Assay type: binding, human
Settings: GST fusion on glutathione-Sepharose, COS7 lysate with SGK-FLAG or ΔN60SGK-HA, 3 h at 4°C, western blot, n = 7
Experimental: In order to better understand the molecular nature of the interaction between Nedd4-2 and SGK, in vitro GST pulldown studies were performed. […] Individual WW-domains of Nedd4-2 or Nedd4, or combinations of Nedd4-2 WW-domains, were expressed as GST fusion proteins and purified on glutathione-Sepharose beads. Lysates of COS7 cells expressing SGK or ΔN60-SGK (both SGK constructs gave the same results) were incubated with the WW-domain fusion proteins or GST alone. Bound SGK was detected by western blotting with anti-FLAG/HA.
pGEX-KG containing the cDNA of WW-domains of Nedd4 and Nedd4-2 or the empty vector were transformed into Escherichia coli strain BL21, and expression of the WW-domains-GST fusion protein or GST alone was induced with 0.5 µM isopropyl-D-1-thiogalactopyranoside for 3 h at 37°C. Bacteria were lysed using BugBuster (Novagen, Merck KGaA, Darmstadt, Germany), and the GST fusion proteins were purified on glutathione-Sepharose beads (GE Healthcare, Little Chalfont, Bucks, U.K.). COS7 cells were transiently transfected with pMT3 containing SGK/SGKS422D-FLAG or ΔN60SGK-HA. […] The glutathione-Sepharose beads, along with the fusion proteins and any binding proteins, were collected by centrifugation (1 min, 16,000 g), washed extensively in T-TBS and analyzed by SDS-PAGE and Western blotting using anti-FLAG antibody. Resulting X-ray films were analyzed densitometrically.

| binding to SGK in GST pulldown (in words) | Substance |
| --- | --- |
| interact with SGK | Nedd4 WW1: WW-domain 1 of Nedd4, GST fusion (SPLPPGWEERQDILGRTYYVNHESRRTQWKRPTP; left off: GST, end not stated, kept) |
| interact with SGK | Nedd4 WW3: WW-domain 3 of Nedd4 (GFLPKGWEVRHAPNGRPFFIDHNTKTTTWEDPRL; left off: GST, end not stated, cleaved) |
